Experimental data: patent publication US4713453A, “Oxabicycloheptane derivatives” (Suntori Limited, priority 1986, dated 1987)

Legend:
peroxylipid formation = assay: Anti-lipidperoxidation effect (TBA assay of malondialdehyde in rat brain homogenate); assay type: biochemical, rat (male Wistar); settings: for Inhibition of peroxylipid formation: 10 μl (10^-4 M) test compound in 990 μl sample, 37° C., 30 minutes, pH 7.4; for anti-lipidperoxidation effects: rat brain homogenate
Experimental: 3. Anti-lipidperoxidation effect
Male Wistar rats weighing 200-250 g were used. The brain of each rat was extracted after decapitation, homogenized with 50 mM of a phosphate buffer solution (PBS, pH 7.4) and centrifuged at 1,000 g for 15 minutes. The supernatant was stored frozen at -30° C. Before use, it was thawed under flowing water and diluted with PBS three-fold to prepare a live sample.
Two samples were prepared by adding 10 μl (10^-4 M) of a test compound in solution to 990 μl of the live sample. One sample was incubated at 37° C. for 30 minutes and reaction was quenched by addition of 0.2 ml of 35% aqueous perchloric acid. The other sample was immediately mixed with 35% perchloric acid without incubation. Each of the mixtures was centrifuged at 3,000 rpm for 15 minutes and 0.5 ml of the supernatant was subjected to TBA assay (Yagi et al., Anal. Biochem., 95, 351 (1979)) for determining the malondialdehyde (MDA) content (×10^-4 M) by subtracting the peroxylipid level for the unincubated mixture from that for the incubated mixture. The percent inhibition of peroxylipid formation was calculated by the following formula: [formula] where A is the MDA content of a treated sample and B is the value for a control sample that was not treated with any test compound.

Male ddY mice [1] = assay: Anti-cerebroischemic effect (brain protection after ischemia by decapitation): gasping time; assay type: in vivo, mouse (male ddY); settings: intraperitoneal, 30 min before decapitation
Experimental: 1. Anti-cerebroischemic effect (i.e., brain protection after ischemia by decapitation)
Male ddY mice weighing 22-30 g were used in groups each consisting of 6 animals. Test compounds were administered intraperitoneally to the mice which were decapitated 30 minutes after the administration. The gasping time, or the duration of time between the onset of panting after decapitation and its cessation, was measured, and this was compared with the gasping time for a control group which were given only a liquid vehicle.

Male ddY mice [2] = assay: Anti-hypoxia effect (brain protection in low-oxygen state after evacuation): survival time; assay type: in vivo, mouse (male ddY); settings: intraperitoneal, 180 mmHg
Experimental: 2. Anti-hypoxia effect (i.e., […] protection in low-oxygen state after evacuation)
Male ddY m8mice weighing 22-30 g were used in groups each consisting of 7-10 animals. The mice were placed in a desiccator (capacity: ca. 1,000 ml) which was evacuated with a vacuum pump to an internal pressure of 180 mmHg after intraperitoneal administration of test compounds. The survival time, or the duration of time between the start of evacuation and the cessation of breathing, was measured, and this was compared with the value for a vehicle group. Any survival time longer than a period of 15 minutes after application of a hypoxia load was counted as 15 minutes.

[3] = system: scopolamine amnesia mouse; assay: Anti-amnesia effect (scopolamine-induced retrograde amnesia), step-through passive avoidance; assay type: in vivo, mouse (male ddY); settings: ip, 24 h, significant prolongation of step-through latency, intraperitoneal, scopolamine 0.5 mg/kg s.c., read-out: Minimum effective amount
Experimental: 6a. Anti-amnesia effect (i.e., capability of preventing scopolamine-inducedretrograde amnesia)
Five-week old male ddY weighing 25-30 g were used in groups each consisting of 10 animals. Memory retention deficit induced by scopolamine was evaluated by two-compartment step-through passive avoidance task. […] The floor of the dark compartment was provided with a current-conducting grid.
The experimental method was as follows. A scopolamine amnesia mouse that had been given subcutaneous injection of 0.5 mg/kg of an aqueous solution of scopolamine borate 20 minutes before was placed in the light compartment and when its forefeet touched the grid floor of the dark compartment, a current of 0.6 mA was applied to give a foot shock to the mouse (acquired conation). Immediately thereafter, a selected test compound or a control (physiological saline solution) was administered intraperitoneally. Twenty-four hours later, the mouse was replaced in the light compartment and the step-through latency, or the time required for the mouse to move to the dark compartment, was measured for a period of up to 300 seconds (test conation). The minimum effective amount of the test compound that provided a significant prolongation of the step-through latency over the control was determined.

SMILES	Inhibition of peroxylipid formation (peroxylipid formation)	prolongation of gasping time (Male ddY mice [1]; 25 mg/kg)	other results
CN(C)CCON=C1c2ccccc2OC2(c3ccccc3)CC12 (centres unmarked) [Example 1, 3,4-Benzo-5-(2-dimethylaminoethyl)oxyimino-1-phenyl-2-oxabicyclo[4.1.0]heptane]	56.9%	significantly prolonging the gasping time	–
CC(CON=C1c2ccccc2OC2(c3ccccc3)CC12)CN(C)C (centres unmarked) [Example 4, 3,4-Benzo-5-(3-dimethylamino-2-methylpropyl)-oxyimino-1-phenyl-2-oxabicyclo[4.1.0]heptane]	56.0%	–	prolongation of survival time (Male ddY mice [2]; 12.5 mg/kg): significantly prolonging the survival time
c1ccc(C23CC2C(=NOCCC24CCCN2CCC4)c2ccccc2O3)cc1 (centres unmarked) [Example 5, 3,4-Benzo-5-(2-pyrrolizidin-8-ylethyl)oxyimino-1-phenyl-2-oxabicyclo[4.1.0]heptane]	96.5%	–	anti-lipidperoxidation effects (peroxylipid formation): strong anti-lipidperoxidation effects; prolongation of survival time (Male ddY mice [2]; 12.5 mg/kg): significantly prolonging the survival time
COc1ccc2c(c1)OC1(c3ccccc3)CC1C2=NOCCN(C)C (centres unmarked) [Example 7, 3,4-(3-Methoxybenzo)-5-(2-dimethylaminoethyl)oxyimino-1-phenyl-2-oxabicyclo[4.1.0]heptane]	–	significantly prolonging the gasping time	minimal effective dose [3]: 20 mg/kg
CN(C)CCON=C1c2ccc(Cl)cc2OC2(c3ccccc3)CC12 (centres unmarked) [Example 8, 3,4-(3-Chlorobenzo)-5-(2-dimethylaminoethyl)oxaimino-1-phenyl-2-oxabicyclo[4.1.0]heptane]	90.2%	significantly prolonging the gasping time	anti-lipidperoxidation effects (peroxylipid formation): strong anti-lipidperoxidation effects
CN(C)CCCON=C1c2ccc(Cl)cc2OC2(c3ccccc3)CC12 (centres unmarked) [Example 9]	82.7%	significantly prolonging the gasping time	anti-lipidperoxidation effects (peroxylipid formation): strong anti-lipidperoxidation effects
CN(C)CCCON=C1c2ccccc2OC2(c3cccs3)CC12 (centres unmarked) [Example 11, 3,4-Benzo-5-(3-dimethylaminopropylo)xyimino-1-thienyl-2-oxabicyclo[4.1.0]heptane]	–	–	prolongation of survival time (Male ddY mice [2]; 12.5 mg/kg): significantly prolonging the survival time
CN(C)CCCON=C1c2ccc(Cl)cc2OC2(c3ccc([N+](=O)[O-])cc3)CC12 (centres unmarked) [Example 12, 3,4-(3-Chlorobenzo)-5-(3-dimethylaminopropyl)oxyimino-1-(4-nitrophenyl)-2-oxabicyclo[4.1.0]heptane]	99.0%	–	anti-lipidperoxidation effects (peroxylipid formation): strong anti-lipidperoxidation effects
CNCCCON=C1c2ccccc2OC2(c3ccccc3)CC12 (centres unmarked) [Example 15, 3,4-Benzo-5-(3-methylaminopropyl)oxyimino-1-phenyl-2-oxabicyclo[4.1.0]heptane]	85.7%	–	anti-lipidperoxidation effects (peroxylipid formation): strong anti-lipidperoxidation effects; prolongation of survival time (Male ddY mice [2]; 12.5 mg/kg): significantly prolonging the survival time
CCN(CC)CCCON=C1c2ccccc2OC2(c3ccccc3)CC12 (centres unmarked) [Example 16]	83.3%	–	anti-lipidperoxidation effects (peroxylipid formation): strong anti-lipidperoxidation effects
CN(C)CCCCON=C1c2ccccc2OC2(c3ccccc3)CC12 (centres unmarked) [Example 19, 3,4-Benzo-5-(4-dimethylaminobutyl)oxyimino-1-phenyl-2-oxabicyclo[4.1.0]heptane]	52.6%	–	–
CNCCCCON=C1c2ccccc2OC2(c3ccccc3)CC12 (centres unmarked) [Example 20, 3,4-Benzo-5-(4-methylaminobutyl)oxyimino-1-phenyl-2-oxabicyclo[4.1.0]heptan]	–	significantly prolonging the gasping time	–
CN(C)CCOC1c2ccccc2OC2(c3ccccc3)CC12 (centres unmarked) [Example 23, 3,4-Benzo-5-(2-dimethylaminoethyl)oxy-1-phenyl-2-oxabicyclo[4.1.0]heptane]	–	significantly prolonging the gasping time	prolongation of gasping time (Male ddY mice [1]; 12.5 mg/kg): significant prolongation of the gasping time; minimal effective dose [3]: 50 mg/kg
CN(C)CCCOC1c2ccccc2OC2(c3ccccc3)CC12 (centres unmarked) [Example 24, 3,4-Benzo-5-(3-dimethylaminopropyl)oxy-1-phenyl-2-oxabicyclo[4.1.0]heptane]	–	significantly prolonging the gasping time	prolongation of gasping time (Male ddY mice [1]; 12.5 mg/kg): significant prolongation of the gasping time
CN(C)CCOC1c2ccc(Cl)cc2OC2(c3ccccc3)CC12 (centres unmarked) [Example 26, 3,4-(3-Chlorobenzo)-5-(2-dimethylaminoethyl)oxy-1-phenyl-2-oxabicyclo[4.1.0]heptane]	79.1%	significantly prolonging the gasping time	–
CN(C)CCCOC1c2ccc(Cl)cc2OC2(c3ccccc3)CC12 (centres unmarked) [Example 27, 3,4-(3-Chlorobenzo)-5-(3-dimethylaminopropyl)oxy-1-phenyl-2-oxabicyclo[4.1.0]heptane]	62.0%	significantly prolonging the gasping time	prolongation of gasping time (Male ddY mice [1]; 12.5 mg/kg): significant prolongation of the gasping time
COc1ccc2c(c1)OC1(c3ccccc3)CC1C2OCCN(C)C (centres unmarked) [Example 28, 3,4-(3-Methoxybenzo)-5-(2-dimethylaminoethyl)oxy-1-phenyl-2-oxabicyclo[4.1.0]heptane]	77.6%	significantly prolonging the gasping time	prolongation of gasping time (Male ddY mice [1]; 12.5 mg/kg): significant prolongation of the gasping time; minimal effective dose [3]: 12.5 mg/kg
CN(C)CCCCOC1c2ccccc2OC2(c3ccccc3)CC12 (centres unmarked) [Example 30, 3,4-Benzo-5-(4-dimethylaminobutyl)oxy-1-phenyl-2-oxabicyclo[4.1.0]heptane]	–	significantly prolonging the gasping time	prolongation of survival time (Male ddY mice [2]; 6.25 mg/kg or smaller): significant prolongation of the survival time; prolongation of survival time (Male ddY mice [2]; 12.5 mg/kg): significantly prolonging the survival time; minimal effective dose [3]: 12.5 mg/kg
CN(C)CCCCCCOC1c2ccccc2OC2(c3ccccc3)CC12 (centres unmarked) [Example 31]	–	–	prolongation of survival time (Male ddY mice [2]; 6.25 mg/kg or smaller): significant prolongation of the survival time; prolongation of survival time (Male ddY mice [2]; 12.5 mg/kg): significantly prolonging the survival time
CN(C)CCCON=C1c2ccc(O)cc2OC2(c3ccccc3)CC12 (centres unmarked) [Example 34, 3,4-(3-Hydroxybenzo)-5-(3-dimethylaminopropyl)oxyimino-1-phenyl-2-oxabicyclo[4.1.0]heptane]	79.9%	–	–
CN(C)CCCOC1c2ccc(O)cc2OC2(c3ccccc3)CC12 (centres unmarked) [Example 35, 3,4-(3-Hydroxybenzo)-5-(3-dimethylaminopropyl)oxy-1-phenyl-2-oxabicyclo[4.1.0]heptane]	69.0%	–	–
